System: Orobanche cumana Wallr. seeds (race F; seed lots IN146 and IN153)
Assay: Germination of preconditioned Orobanche cumana seeds on glass fiber filter paper in petri dishes
Assay type: in vivo
Conditions: mean, N = 5 × 100 seeds, re-transformed data; for Germination (%): seed lot IN146 raceF, examined 10 days later
Protocol: The effect of compounds of formula (I) on germination of Orobanche cumana Wallr. seeds was evaluated on glass fiber filter paper (GFFP) in petri dishes. Seeds were preconditioned at moisture and suitable temperature to become responsive to the specific chemical germination stimulants.
Test compounds were dissolved in DMSO (10 000 mg 1^−1) and stored at room temperature in a desiccators with desiccants. The stock solutions were dissolved with deionised water to the appropriate final test concentration.
Seeds of O. cumana race ‘F’ were collected from sunflower fields in Manzanilla (Seville, Spain) in 2006 (seed lot IN146) and 2008 (seed lot IN153) and stored at room temperature. To separate seeds from heavy organic debris, a modified sucrose floatation technique as described by Hartman & Tanimonure (Plant Disease (1991), 75, p. 494) was applied. Seeds were filled into a separation funnel and stirred in water. When seeds floated to the surface, the water fraction containing heavy debris was discarded. Seeds were re-suspended in 2.5M sucrose solution (specific gravity of 1.20) and heavy debris was allowed to settle down for 60 min. After removing debris, seeds were disinfected in 1% sodium hypochlorite solution and 0.025% (v/v) Tween 20 for 2 min. The seeds were decanted onto two layers of cheesecloth, rinsed with sterile deionised water and re-suspended in sterile deionised water. Two ml of the seed suspension containing approximately 150-400 seeds were spread evenly on two layers of sterile glass fiber filter paper disc ([…]) in Petri dishes (Ø9 cm). After wetting the discs with 3 ml sterile deionised water, petri dishes were sealed with parafilm. Seeds were incubated for 10 days at 20° C. in the dark for seed conditioning. The upper disc with conditioned seeds was briefly dried, transferred to a petri dish lined with a dry GFFP disc, and wetted with 6 ml of the appropriate test solution. The compounds of formula (I) were tested at concentrations of 0.001, 0.01, and 0.1 mg 1^−1. The strigolactone analogue GR24 (commercially available as a mixture of isomers) was included as positive control and 0.001% DMSO as negative control. All treatments were tested in five replicates. Seeds were re-incubated at 20° C. in the dark and examined for germination 10 days later. The radicles of germinated seeds were stained for 5 min with blue ink (MIGROS, Switzerland) in 5% acetic acid according to Long et al. (Seed Science Research (2008), 18, p. 125). After staining, seeds were scanned using a flatbed scanner with an optical resolution of 1200 dpi (PULSTEK, OpticPro ST28) or photographed using a camera stand mounted with a digital SLR camera (Canon EOS 5D). Germination of 100 seeds per replicate was evaluated on digital images. Seeds were considered germinated when the radicle protruded from the seed coat. SAS statistical software package version 9.1 was used for analysis of variance (GLM procedure) and multiple comparisons of treatment means (Sidak t-test) based on arcsine transformed percentage germination data.

[1] = Table 5, seed lot IN146, race F, 0.001 mg l^−1
[2] = Table 5, seed lot IN146, race F, 0.01 mg l^−1
[3] = Table 5, seed lot IN146, race F, 0.1 mg l^−1
[4] = Table 8, seed lot IN153, race F, 0.001 mg l^−1
[5] = Table 8, seed lot IN153, race F, 0.01 mg l^−1
[6] = Table 8, seed lot IN153, race F, 0.1 mg l^−1
[7] = 0.001 mg l^−1, lot IN146, raceF, Table 4
[8] = 0.01 mg l^−1, lot IN146, raceF, Table 4
[9] = 0.1 mg l^−1, lot IN146, raceF, Table 4
[10] = Table 7, seed lot IN153, race F, 0.001 mg l^−1
[11] = Table 7, seed lot IN153, race F, 0.01 mg l^−1
[12] = Table 7, seed lot IN153, race F, 0.1 mg l^−1

Structure (SMILES): CC1=CC(OC=C2C(=O)NC3c4cccc(C#N)c4CC23)OC1=O (stereo not drawn) [Compound A11]
- Germination % at concentration of 0.001 mg l^−1 [1]: 86.3 ab %
- Germination % at concentration of 0.01 mg l^−1 [2]: 88.4 ab %
- Germination % at concentration of 0.1 mg l^−1 [3]: 85.5 ab %

Structure (SMILES): CC1=CC(OC=C2C(=O)N(CC#N)C3c4ccccc4CC23)OC1=O (mixture of isomers) [A28*]
- Germination % at concentration of 0.001 mg l^−1 [4]: 42.4 ef %
- Germination % at concentration of 0.01 mg l^−1 [5]: 89.2 abc %
- Germination % at concentration of 0.1 mg l^−1 [6]: 96.3 ab %

Structure (SMILES): CCCc1cccc2c1C1NC(=O)C(=COC3C=C(C)C(=O)O3)C1C2 (stereo not drawn) [Compound A13]
- Germination % at concentration of 0.001 mg l^−1 [7]: 14.3 de %
- Germination % at concentration of 0.01 mg l^−1 [8]: 64.5 abcd %
- Germination % at concentration of 0.1 mg l^−1 [9]: 21.5 cde %

Structure (SMILES): CCCc1cccc2c1CC1C(=COC3C=C(C)C(=O)O3)C(=O)NC21 (stereo not drawn) [Compound A14]
- Germination % at concentration of 0.001 mg l^−1 [1]: 85.3 ab %
- Germination % at concentration of 0.01 mg l^−1 [2]: 91.5 a %
- Germination % at concentration of 0.1 mg l^−1 [3]: 86.2 ab %

Structure (SMILES): CC(=O)N1C(=O)C(=COC2C=C(C)C(=O)O2)C2Cc3ccccc3C21 (stereo not drawn) [Compound A22]
- Germination % at concentration of 0.001 mg l^−1 [4]: 87.6 abc %
- Germination % at concentration of 0.01 mg l^−1 [5]: 95.3 ab %
- Germination % at concentration of 0.1 mg l^−1 [6]: 95.7 ab %

Structure (SMILES): CC1=CC(O/C=C2/C(=O)NC3c4ccccc4C[C@H]23)OC1=O (stereo in doubt) [Compound P1, (3aR*,8bS*,5′R*)-3-[1-(4-Methyl-5-oxo-2,5-dihydro-furan-2-yloxy)-meth-(E)-ylidene]-3,3a,4,8b-tetrahydro-1H-indeno[1,2-b]pyrrol-2-one]
- Germination (%) (0.001 mg l^−1): 70.5%
- Germination (%) (0.01 mg l^−1): 83.7%
- Germination (%) (0.1 mg l^−1): 83.1%

Structure (SMILES): CC1=CC(OC=C2C(=O)NC3c4cccc(Br)c4CC23)OC1=O (stereo not drawn) [Compound A2]
- Germination % at concentration of 0.001 mg l^−1 [1]: 76.9 abc %
- Germination % at concentration of 0.01 mg l^−1 [2]: 82 ab %
- Germination % at concentration of 0.1 mg l^−1 [3]: 83.2 ab %

Structure (SMILES): CC1=C[C@H](O/C=C2/C(=O)O[C@@H]3c4ccccc4C[C@H]23)OC1=O [GR24, reference compound]
- Germination (%) (0.001 mg l^−1): 25.9%
- Germination (%) (0.01 mg l^−1): 44.9%
- Germination (%) (0.1 mg l^−1): 59.8%

Structure (SMILES): CC1=CC(O/C=C2/C(=O)N(Cc3ccc(F)cc3)C3c4ccccc4CC23)OC1=O (stereo not drawn) [A27*, (3E)-1-[(4-fluorophenyl)methyl]-3-[(4-methyl-5-oxo-2H-furan-2-yl)oxymethylene]-4,8b-dihydro-3aH-indeno[1,2-b]pyrrol-2-one]
- Germination % at concentration of 0.001 mg l^−1 [4]: 7.7 fg %
- Germination % at concentration of 0.01 mg l^−1 [5]: 63.3 abcde %
- Germination % at concentration of 0.1 mg l^−1 [6]: 80.1 abcde %

Structure (SMILES): CC1=CC(OC=C2C(=O)N(C(=O)OC(C)(C)C)C3c4ccccc4CC23)OC1=O (mixture of isomers) [A15*]
- Germination % at concentration of 0.001 mg l^−1 [1]: 0 e %
- Germination % at concentration of 0.01 mg l^−1 [2]: 12.4 de %
- Germination % at concentration of 0.1 mg l^−1 [3]: 25 d %

Structure (SMILES): CC1=CC(OC=C2C(=O)NC3c4c(Br)cccc4CC23)OC1=O (stereo not drawn) [Compound A6]
- Germination % at concentration of 0.001 mg l^−1 [7]: 22.3 cde %
- Germination % at concentration of 0.01 mg l^−1 [8]: 59.2 abcd %
- Germination % at concentration of 0.1 mg l^−1 [9]: 27.8 bcde %

Structure (SMILES): CCOC(=O)N1C(=O)C(=COC2C=C(C)C(=O)O2)C2Cc3ccccc3C21 (stereo not drawn) [Compound A21]
- Germination % at concentration of 0.001 mg l^−1 [4]: 83.7 abcde %
- Germination % at concentration of 0.01 mg l^−1 [5]: 93.4 abc %
- Germination % at concentration of 0.1 mg l^−1 [6]: 96.7 a %

Structure (SMILES): CC1=CC(OC=C2C(=O)N(C(=O)OC(C)(C)C)C3c4ccccc4C(F)C23)OC1=O (mixture of isomers) [A25*]
- Germination % at concentration of 0.001 mg l^−1 [10]: 1.2 c %
- Germination % at concentration of 0.01 mg l^−1 [11]: 14.3 c %
- Germination % at concentration of 0.1 mg l^−1 [12]: 86.3 ab %

Structure (SMILES): CC1=CC(OC=C2C(=O)NC3c4cc(C)ccc4CC23)OC1=O (stereo not drawn) [Compound A3]
- Germination % at concentration of 0.001 mg l^−1 [10]: 96.4 ab %
- Germination % at concentration of 0.01 mg l^−1 [11]: 98.5 a %
- Germination % at concentration of 0.1 mg l^−1 [12]: 98.0 a %
